Data on 14 compounds can be found in patent US12516056B2, “Compounds for inhibition of janus kinase 1” (MANKIND PHARMA LTD., priority 2019, dated 2026).

One experiment deals with T1, Recombinant TYK2 (Homo sapiens, UniProt P29597).
T1 construct: purchased Carna Biosciences
Nature of the experiment: JAK biochemical assay (LANCE Ultra TR-FRET), TYK2. Conditions: recombinant TYK2, TR-FRET; read-out: Biochemical Assay (μM) TYK2. The procedure, abridged: (§1)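 TR-FRET read-out of ULight substrate phosphorylation by recombinant kinase gives % inhibition relative to vehicle. The assay buffer is HEPES pH 7.5 with EGTA, MgCl2, DTT and Tween-20.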
Background: Time-resolved FRET reads energy transfer from a long-lived donor to a nearby acceptor.

For the next experiment, the target named is T2, Recombinant JAK2 (Homo sapiens, UniProt O60674).
T2 construct: purchased Carna Biosciences
The experiment can be described thus: JAK biochemical assay (LANCE Ultra TR-FRET), JAK2. Particulars: recombinant JAK2, TR-FRET; read-out: Biochemical Assay (μM) JAK2. The procedure, abridged: as §1

The test system of experiment [1] is STAT5 phosphorylation by GMCSF in TF-1 cells. Nature of the experiment: JAK cellular assay: STAT5 phosphorylation by GMCSF in TF-1 cells (HTRF). Format: cell-based. Particulars: Homo sapiens; TF-1 cells, GMCSF 5 ng/ml, pSTAT5 HTRF; read-out: Cell Based Assay (μM) TF-1/GMCSF/pSTAT5. The procedure:
TF-1 cells were starved overnight in OptiMEM medium with 0.5% charcoal stripped fetal bovine serum, 0.1 mM nonessential amino acids (NEAA), 1 mM sodium pyruvate and without phenol red in CO2 incubator maintained at 37° c. Next day, cells were resuspended in RPMI without phenol red and dispensed into a 96 well plate at a final cell density of 1,20,000 cells per well. Compounds were diluted in DMSO and added to cells and incubated for 30 minutes in CO2 incubator maintained at 37° c. Final DMSO concentration in cell based assay was 0.2%. Human recombinant cytokines, IL-6 (30 ng/ml) and GMCSF (5 ng/ml) were added to the plate containing cells along with compound and incubated for 20 minutes with gentle tapping at every 5 minutes once. Compound mediated effects on STAT3 and STAT5 phosphorylation was measured in the lysates prepared by using CISBIO pSTAT3 and pSTAT5 detection kits by HTRF method. Background signal obtained from cells which were not activated with cytokines, was subtracted from vehicle controls and compound treated wells.

A further experiment addresses T3, Recombinant JAK3 (Homo sapiens, UniProt P52333).
T3 construct: purchased Carna Biosciences
T3 sequence (P52333 1-1124): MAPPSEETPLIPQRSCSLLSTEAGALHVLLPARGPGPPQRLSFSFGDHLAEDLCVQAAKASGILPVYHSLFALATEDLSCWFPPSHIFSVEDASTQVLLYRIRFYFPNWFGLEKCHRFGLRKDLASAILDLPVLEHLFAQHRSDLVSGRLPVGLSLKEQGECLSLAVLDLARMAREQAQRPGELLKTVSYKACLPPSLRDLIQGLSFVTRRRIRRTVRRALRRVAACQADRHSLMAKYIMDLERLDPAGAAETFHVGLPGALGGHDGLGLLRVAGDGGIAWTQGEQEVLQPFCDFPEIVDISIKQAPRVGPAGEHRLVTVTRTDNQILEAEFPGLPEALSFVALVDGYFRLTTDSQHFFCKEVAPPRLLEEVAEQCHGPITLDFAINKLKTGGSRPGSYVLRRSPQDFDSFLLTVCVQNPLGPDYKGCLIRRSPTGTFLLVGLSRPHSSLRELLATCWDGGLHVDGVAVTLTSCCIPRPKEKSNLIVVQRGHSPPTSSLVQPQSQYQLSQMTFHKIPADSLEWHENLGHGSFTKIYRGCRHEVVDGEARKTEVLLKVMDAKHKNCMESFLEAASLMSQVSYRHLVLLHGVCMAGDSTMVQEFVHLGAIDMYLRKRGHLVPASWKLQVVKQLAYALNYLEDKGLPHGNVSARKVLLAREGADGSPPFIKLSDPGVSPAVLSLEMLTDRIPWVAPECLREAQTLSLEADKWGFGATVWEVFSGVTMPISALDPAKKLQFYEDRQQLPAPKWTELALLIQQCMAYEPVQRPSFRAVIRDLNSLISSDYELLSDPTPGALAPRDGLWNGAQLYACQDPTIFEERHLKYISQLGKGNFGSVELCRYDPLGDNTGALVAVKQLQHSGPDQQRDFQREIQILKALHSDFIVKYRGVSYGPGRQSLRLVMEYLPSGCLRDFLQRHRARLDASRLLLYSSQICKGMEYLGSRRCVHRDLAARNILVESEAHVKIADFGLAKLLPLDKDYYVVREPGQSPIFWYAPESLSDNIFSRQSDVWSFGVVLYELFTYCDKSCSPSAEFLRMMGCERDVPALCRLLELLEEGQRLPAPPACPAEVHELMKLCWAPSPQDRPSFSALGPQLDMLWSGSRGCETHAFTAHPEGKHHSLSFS
The experiment can be described thus: JAK biochemical assay (LANCE Ultra TR-FRET), JAK3. Particulars: recombinant JAK3, TR-FRET; read-out: Biochemical Assay (μM) JAK3. The procedure, abridged: as §1

Experiment [2] deals with STAT3 phosphorylation by IL-6 in TF-1 cells. The experiment can be described thus: JAK cellular assay: STAT3 phosphorylation by IL-6 in TF-1 cells (HTRF). Format: cell-based. Conditions: Homo sapiens, TF-1, TF-1 cells, IL-6 30 ng/ml, pSTAT3 HTRF; read-out: Cell Based Assay (μM) TF-1/IL-6/pSTAT3. The procedure, abridged: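 Phospho-STAT3 (IL-6, 30 ng/ml) and phospho-STAT5 (GMCSF, 5 ng/ml) read by HTRF in lysates after 20 min cytokine exposure, minus unstimulated-cell background. Cells were serum-starved overnight, plated at 120,000/well, given compound 30 min at 37 °C beforehand; DMSO 0.2% final.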

The target of a further experiment is T4, Recombinant JAK1 (Homo sapiens, UniProt P23458).
T4 construct: purchased Carna Biosciences
The experiment can be described thus: JAK biochemical assay (LANCE Ultra TR-FRET), JAK1. Conditions: recombinant JAK1, TR-FRET; read-out: Biochemical Assay (μM) JAK1. The procedure, abridged: as §1

T2 sequence (O60674 whole entry): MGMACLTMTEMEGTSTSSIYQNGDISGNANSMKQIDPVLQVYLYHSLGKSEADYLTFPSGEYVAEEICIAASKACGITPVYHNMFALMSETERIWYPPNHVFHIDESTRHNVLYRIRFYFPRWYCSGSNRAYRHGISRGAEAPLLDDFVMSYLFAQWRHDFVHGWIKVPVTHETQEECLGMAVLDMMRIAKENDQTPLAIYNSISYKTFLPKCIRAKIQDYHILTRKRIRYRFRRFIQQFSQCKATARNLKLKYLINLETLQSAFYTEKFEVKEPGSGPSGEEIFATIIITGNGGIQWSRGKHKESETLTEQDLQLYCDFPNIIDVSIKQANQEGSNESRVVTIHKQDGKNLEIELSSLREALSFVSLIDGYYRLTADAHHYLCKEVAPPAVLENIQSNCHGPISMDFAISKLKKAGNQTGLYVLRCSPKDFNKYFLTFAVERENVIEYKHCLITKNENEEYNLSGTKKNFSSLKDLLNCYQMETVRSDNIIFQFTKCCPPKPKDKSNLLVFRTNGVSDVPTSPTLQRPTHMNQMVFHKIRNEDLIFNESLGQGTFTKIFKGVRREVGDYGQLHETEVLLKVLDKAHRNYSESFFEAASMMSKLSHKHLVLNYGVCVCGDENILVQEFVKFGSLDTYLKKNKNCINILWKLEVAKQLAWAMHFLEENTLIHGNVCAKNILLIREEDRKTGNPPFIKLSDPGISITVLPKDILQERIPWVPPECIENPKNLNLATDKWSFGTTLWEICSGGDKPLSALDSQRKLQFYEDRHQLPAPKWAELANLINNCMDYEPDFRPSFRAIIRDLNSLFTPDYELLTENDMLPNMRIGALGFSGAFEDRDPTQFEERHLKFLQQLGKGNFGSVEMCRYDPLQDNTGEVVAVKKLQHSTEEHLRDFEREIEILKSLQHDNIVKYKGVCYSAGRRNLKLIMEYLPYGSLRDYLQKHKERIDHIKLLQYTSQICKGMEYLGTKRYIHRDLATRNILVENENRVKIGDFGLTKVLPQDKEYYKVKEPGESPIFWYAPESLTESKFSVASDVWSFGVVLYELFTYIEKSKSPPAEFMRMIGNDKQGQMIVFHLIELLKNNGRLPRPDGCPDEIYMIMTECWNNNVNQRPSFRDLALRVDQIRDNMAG
T4 sequence (P23458 whole entry): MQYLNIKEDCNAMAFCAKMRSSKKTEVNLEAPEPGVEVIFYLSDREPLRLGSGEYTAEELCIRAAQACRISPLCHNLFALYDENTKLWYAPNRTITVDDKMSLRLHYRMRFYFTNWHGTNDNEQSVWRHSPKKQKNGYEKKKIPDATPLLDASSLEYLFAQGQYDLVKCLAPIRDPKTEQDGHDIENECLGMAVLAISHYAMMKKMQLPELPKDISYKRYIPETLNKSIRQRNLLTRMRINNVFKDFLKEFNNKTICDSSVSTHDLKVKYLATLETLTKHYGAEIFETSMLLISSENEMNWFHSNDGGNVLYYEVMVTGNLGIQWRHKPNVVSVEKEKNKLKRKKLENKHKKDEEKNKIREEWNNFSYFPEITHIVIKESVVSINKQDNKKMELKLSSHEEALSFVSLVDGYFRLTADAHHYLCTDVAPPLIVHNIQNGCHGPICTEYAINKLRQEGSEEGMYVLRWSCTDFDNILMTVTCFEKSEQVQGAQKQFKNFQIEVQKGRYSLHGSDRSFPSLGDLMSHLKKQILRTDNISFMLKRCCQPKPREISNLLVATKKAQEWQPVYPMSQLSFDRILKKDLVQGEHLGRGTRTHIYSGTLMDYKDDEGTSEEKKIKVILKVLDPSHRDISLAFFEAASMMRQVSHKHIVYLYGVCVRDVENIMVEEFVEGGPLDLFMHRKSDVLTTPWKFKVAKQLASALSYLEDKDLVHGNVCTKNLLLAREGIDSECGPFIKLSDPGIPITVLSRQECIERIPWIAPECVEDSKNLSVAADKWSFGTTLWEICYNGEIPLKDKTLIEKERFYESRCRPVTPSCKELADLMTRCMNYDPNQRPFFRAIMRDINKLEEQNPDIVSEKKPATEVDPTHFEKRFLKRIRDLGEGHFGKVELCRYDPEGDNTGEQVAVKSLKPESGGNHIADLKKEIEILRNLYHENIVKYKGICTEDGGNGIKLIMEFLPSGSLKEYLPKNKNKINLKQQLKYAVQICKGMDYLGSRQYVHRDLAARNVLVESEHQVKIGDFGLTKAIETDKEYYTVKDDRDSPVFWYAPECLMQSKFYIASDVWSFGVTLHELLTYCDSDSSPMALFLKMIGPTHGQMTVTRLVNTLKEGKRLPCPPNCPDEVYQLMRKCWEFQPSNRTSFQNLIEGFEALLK
T1 sequence (P29597 whole entry): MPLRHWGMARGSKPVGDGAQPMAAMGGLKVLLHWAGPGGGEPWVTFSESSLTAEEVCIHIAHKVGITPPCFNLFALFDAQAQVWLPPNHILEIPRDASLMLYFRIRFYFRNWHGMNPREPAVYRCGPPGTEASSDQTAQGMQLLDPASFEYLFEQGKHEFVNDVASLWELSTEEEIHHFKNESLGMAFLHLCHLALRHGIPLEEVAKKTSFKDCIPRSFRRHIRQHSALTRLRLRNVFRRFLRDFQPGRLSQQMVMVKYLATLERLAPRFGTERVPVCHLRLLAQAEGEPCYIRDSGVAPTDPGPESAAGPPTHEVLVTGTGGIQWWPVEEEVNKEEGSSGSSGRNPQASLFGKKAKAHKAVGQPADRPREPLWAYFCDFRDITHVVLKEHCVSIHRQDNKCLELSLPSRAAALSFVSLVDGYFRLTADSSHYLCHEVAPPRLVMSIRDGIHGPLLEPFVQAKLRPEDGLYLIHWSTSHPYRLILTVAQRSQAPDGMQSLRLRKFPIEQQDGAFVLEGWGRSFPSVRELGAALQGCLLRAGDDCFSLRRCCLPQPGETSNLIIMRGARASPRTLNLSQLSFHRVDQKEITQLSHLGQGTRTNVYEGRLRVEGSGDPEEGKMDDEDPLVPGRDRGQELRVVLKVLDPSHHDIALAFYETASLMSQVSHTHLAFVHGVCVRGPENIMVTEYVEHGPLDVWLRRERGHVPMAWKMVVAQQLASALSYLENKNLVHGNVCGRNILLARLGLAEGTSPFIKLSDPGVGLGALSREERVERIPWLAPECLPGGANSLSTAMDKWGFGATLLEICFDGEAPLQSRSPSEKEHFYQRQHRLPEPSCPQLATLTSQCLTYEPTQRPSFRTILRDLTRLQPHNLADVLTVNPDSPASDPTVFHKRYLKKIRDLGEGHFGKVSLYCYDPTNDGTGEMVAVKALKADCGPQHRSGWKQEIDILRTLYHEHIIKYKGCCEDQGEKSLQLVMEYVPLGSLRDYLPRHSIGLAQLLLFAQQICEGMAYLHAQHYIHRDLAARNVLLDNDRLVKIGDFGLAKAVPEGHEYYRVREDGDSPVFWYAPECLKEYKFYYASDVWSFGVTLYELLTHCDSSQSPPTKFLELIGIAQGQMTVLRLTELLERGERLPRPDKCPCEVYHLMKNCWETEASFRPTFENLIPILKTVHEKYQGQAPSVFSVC

In the case of `COC(c1cccc(-n2cc(-c3ccnc4[nH]cnc34)cn2)n1)C(F)(F)F` (stereo not drawn) [Example 1171, 7-(1-(6-(2,2,2-trifluoro-1-methoxyethyl)pyridin-2-yl)-1H-pyrazol-4-yl)-3H-imidazo[4,5-b]pyridine], the IC50 on Recombinant TYK2 is greater than 1 µM; on Recombinant JAK2 it was greater than 1 µM; in experiment [1], greater than 10 µM; at Recombinant JAK3, greater than 1 µM; in experiment [2], greater than 10 µM; at Recombinant JAK1, greater than 1 µM.
Consider `CC(C)[C@@H](C#N)NC(=O)n1cc(-c2ccnc3[nH]cnc23)cn1` [Example 1073, N-((S)-1-cyano-2-methylpropyl)-4-(3H-imidazo[4,5-b]pyridin-7-yl)-1H-pyrazole-1-carboxamide], for which the IC50 was greater than 0.5 µM on Recombinant TYK2; greater than 0.5 µM at Recombinant JAK2; greater than 10 µM in experiment [1]; greater than 0.5 µM at Recombinant JAK3; greater than 1 µM in experiment [2]; greater than 1 µM at Recombinant JAK1.
Regarding `N#CCc1csc(-n2cc(-c3ccnc4[nH]cnc34)cn2)n1` [Example 1076, 2-(2-(4-(3H-imidazo[4,5-b]pyridin-7-yl)-1H-pyrazol-1-yl)thiazol-4-yl)acetonitrile], the IC50 on Recombinant TYK2 is greater than 1 µM; at Recombinant JAK2, 0.085 µM; in experiment [1] it was greater than 10 µM; on Recombinant JAK3, less than 0.5 µM; in experiment [2], 6 µM; at Recombinant JAK1 it was 0.037 µM.
On to `OC(c1ccc(-n2cc(-c3ccnc4[nH]cnc34)cn2)nc1)(C1CCCCC1)C(F)(F)F` (stereo not drawn) [Example 1130, 1-(6-(4-(3H-imidazo[4,5-b]pyridin-7-yl)-1H-pyrazol-1-yl)pyridin-3-yl)-1-cyclohexyl-2,2,2-trifluoroethanol], for which the IC50 on Recombinant TYK2 is greater than 1 µM; on Recombinant JAK2, greater than 0.1 µM; in experiment [1], greater than 10 µM; on Recombinant JAK3, greater than 0.1 µM; in experiment [2] it was greater than 1 µM; on Recombinant JAK1, greater than 0.1 µM.
Consider `c1cc(-c2cnn(Cc3cnco3)c2)c2nc[nH]c2n1` [Example 1077, 7-(1-((oxazol-5-yl)methyl)-1H-pyrazol-4-yl)-3H-imidazo[4,5-b]pyridine], for which the IC50 on Recombinant TYK2 is greater than 10 µM; on Recombinant JAK2, greater than 1 µM; in experiment [1], greater than 10 µM; on Recombinant JAK3, greater than 1 µM; in experiment [2], greater than 10 µM; at Recombinant JAK1, greater than 1 µM.
Consider `CC(F)(c1ccc(-n2cc(-c3ccnc4[nH]cnc34)cn2)nc1)C(F)(F)F` (stereo not drawn) [Example 1128, 7-(1-(5-(1,1,1,2-tetrafluoropropan-2-yl)pyridin-2-yl)-1H-pyrazol-4-yl)-3H-imidazo[4,5-b]pyridine], for which the IC50 at Recombinant TYK2 was greater than 1 µM; at Recombinant JAK2 it was greater than 0.5 µM; in experiment [1] it was greater than 10 µM; on Recombinant JAK3 it was greater than 0.5 µM; in experiment [2] it was greater than 1 µM; on Recombinant JAK1, less than 0.1 µM.
As for `N#CCc1ccc(-n2cc(-c3ccnc4[nH]cnc34)cn2)c(F)c1` [Example 1103, 2-(4-(4-(3H-imidazo[4,5-b]pyridin-7-yl)-1H-pyrazol-1-yl)-3-fluorophenyl)acetonitrile], the IC50 was greater than 10 µM at Recombinant TYK2; greater than 0.5 µM at Recombinant JAK2; greater than 10 µM in experiment [1]; greater than 10 µM at Recombinant JAK3; greater than 1 µM in experiment [2]; greater than 0.5 µM on Recombinant JAK1.
Consider `N#CCC(NC(=O)n1cc(-c2ccnc3[nH]c(=O)[nH]c23)cn1)C(F)(F)F` (stereo not drawn) [Example 1050, N-(3-cyano-1,1,1-trifluoropropan-2-yl)-4-(2,3-dihydro-2-oxo-1H-imidazo[4,5-b]pyridin-7-yl)-1H-pyrazole-1-carboxamide], for which the IC50 on Recombinant TYK2 is less than 0.5 µM; on Recombinant JAK2 it was less than 0.5 µM; in experiment [1], greater than 10 µM; at Recombinant JAK3, less than 0.5 µM; in experiment [2] it was less than 10 µM; on Recombinant JAK1 it was less than 0.5 µM.
As to `COC(c1ccc(-n2cc(-c3ccnc4[nH]cnc34)cn2)nc1)(C1CC1)C(F)(F)F` (stereo not drawn) [Example 1127, 7-(1-(5-(1-cyclopropyl-2,2,2-trifluoro-1-methoxyethyl)pyridin-2-yl)-1H-pyrazol-4-yl)-3H-imidazo[4,5-b]pyridine], the IC50 at Recombinant TYK2 was greater than 1 µM; on Recombinant JAK2 it was greater than 1 µM; in experiment [1], greater than 10 µM; on Recombinant JAK3, greater than 1 µM; in experiment [2], greater than 1 µM; at Recombinant JAK1, greater than 0.5 µM.
`N#CCC(C1CCCC1)n1cc(-c2ccnc3[nH]c(-c4ccccc4)nc23)cn1` (stereo not drawn) [Example 1180, 3-cyclopentyl-3-(4-(2-phenyl-3H-imidazo[4,5-b]pyridin-7-yl)-1H-pyrazol-1-yl)propanenitrile]: the IC50 is less than 1 µM at Recombinant TYK2; less than 1 µM at Recombinant JAK2; greater than 1 µM in experiment [1]; less than 1 µM at Recombinant JAK3; greater than 1 µM in experiment [2]; less than 1 µM at Recombinant JAK1.
Regarding `N#CCC(=O)Nc1ccc(-n2cc(-c3ccnc4[nH]cnc34)cn2)cc1` [Example 1102, N-(4-(4-(3H-imidazo[4,5-b]pyridin-7-yl)-1H-pyrazol-1-yl)phenyl)-2-cyanoacetamide], the IC50 on Recombinant TYK2 is greater than 1 µM; on Recombinant JAK2, greater than 0.5 µM; in experiment [1], greater than 10 µM; on Recombinant JAK3, greater than 0.5 µM; in experiment [2], greater than 10 µM; at Recombinant JAK1 it was less than 0.5 µM.
In the case of `CC(CN1CC(C#N)C1)NC(=O)n1cc(-c2ccnc3[nH]cnc23)cn1` (stereo not drawn) [Example 1068, N-(1-(3-cyanoazetidin-1-yl)propan-2-yl)-4-(3H-imidazo[4,5-b]pyridin-7-yl)-1H-pyrazole-1-carboxamide], the IC50 was greater than 1 µM on Recombinant TYK2; greater than 1 µM at Recombinant JAK2; greater than 10 µM in experiment [1]; greater than 1 µM at Recombinant JAK3; greater than 10 µM in experiment [2]; greater than 1 µM at Recombinant JAK1.
With `O=S1(=O)CCN(Cc2ccc(-n3cc(-c4ccnc5[nH]cnc45)cn3)nc2)CC1` [Example 1086, 4-((6-(4-(3H-imidazo[4,5-b]pyridin-7-yl)-1H-pyrazol-1-yl)pyridin-3-yl)methyl)thiomorpholine 1,1-dioxide], the IC50 is greater than 10 µM on Recombinant TYK2; greater than 0.5 µM on Recombinant JAK2; greater than 10 µM in experiment [1]; greater than 0.5 µM at Recombinant JAK3; greater than 10 µM in experiment [2]; less than 0.5 µM on Recombinant JAK1.
On to `CC(NC(=O)Nc1ccc(-c2ccnc3[nH]c(=O)[nH]c23)cc1)C(F)(F)F` (stereo not drawn) [Example 1002, 1-(1,1,1-trifluoropropan-2-yl)-3-(4-(2,3-dihydro-2-oxo-1H-imidazo[4,5-b]pyridin-7-yl)phenyl)urea], for which the IC50 was greater than 0.5 µM at Recombinant TYK2; less than 0.5 µM on Recombinant JAK2; greater than 10 µM in experiment [1]; less than 0.5 µM at Recombinant JAK3; greater than 10 µM in experiment [2]; less than 0.5 µM at Recombinant JAK1.
